The values below come from US20160090556A1, “PRODUCTS COMPRISING MALODOR REDUCTION MATERIALS” (The Procter & Gamble Company, priority 2014, published 2016).

Like-named read-outs stand apart in the source and are kept apart here.

This series is described as follows: Liquid dish neat product liquid-air partition coefficient. The class given is physicochemical. The following applies: for Comment Code: Log of liquid dish neat product liquid-air partition coefficient: code letters K, L.
Where [1] appears, read: class code letter within Comment Code.

As to `O=C1CCCC=CCCCCCCCCCC1` [Material 788], the “Log of liquid dish neat product liquid-air partition coefficient (Comment Code K/L)” value (from here on “Log … (Comment Code K/L)”) is on record as “K (Log of liquid dish neat product liquid-air partition coefficient greater than or equal to −7)” and the “Comment Code: Log of liquid dish neat product liquid-air partition coefficient” value (shortened to “Comment Code: Log”) is listed as “K (Log of liquid dish neat product liquid-air partition coefficient greater than or equal to −7)”.

Take `c1ccc(Cc2ccccc2)cc1` [Material 429]: under setting [1], the “Log … (Comment Code K/L)” value is listed as “K (Log of liquid dish neat product liquid-air partition coefficient greater than or equal to −7)”.

As to `c1ccc2c(c1)CC1COCOC21` (stereo not drawn) [Material 247], under setting [1], the “Log … (Comment Code K/L)” value is “K (Log of liquid dish neat product liquid-air partition coefficient greater than or equal to −7)”.

`CCCCCC=CC=CC(=O)OCC` [Material 951]: the “Log … (Comment Code K/L)” value is “K (Log of liquid dish neat product liquid-air partition coefficient greater than or equal to −7)”.

For `CC(CO)C1CCCCCCCCCCC1` (stereo not drawn) [Material 252], the “Log … (Comment Code K/L)” value under setting [1] is “K (Log of liquid dish neat product liquid-air partition coefficient greater than or equal to −7)”.

On to `COC1(C)CCC23CC1C(C)(C)C2CCC3C` (stereo not drawn) [Material 565], for which the “Log … (Comment Code K/L)” value is on record as “K (Log of liquid dish neat product liquid-air partition coefficient greater than or equal to −7)” and the “Comment Code: Log” value is recorded as “K (Log of liquid dish neat product liquid-air partition coefficient greater than or equal to −7)”.

As to `C=C1C=CC(C(C)CCC=C(C)C)CC1` (stereo not drawn) [Material 614], the “Log … (Comment Code K/L)” value was “K (Log of liquid dish neat product liquid-air partition coefficient greater than or equal to −7)”.

Regarding `CCOC(=O)C1CCC(C(=O)OCC)CC1` (stereo not drawn) [Material 347], under setting [1], the “Log … (Comment Code K/L)” value is “K (Log of liquid dish neat product liquid-air partition coefficient greater than or equal to −7)”.

Consider `CC1=C(C/C=C(\C)C=O)C(C)(C)CCC1` [Material 602], for which the “Comment Code: Log” value is “K (Log of liquid dish neat product liquid-air partition coefficient greater than or equal to −7)”.

For `CC1=CC2C(C(C)C)CCC(C)(O)C2CC1` (stereo not drawn) [Material 1046], the “Log … (Comment Code K/L)” value is on record as “K (Log of liquid dish neat product liquid-air partition coefficient greater than or equal to −7)”.

With `CC1=CCC(=C(C)C)CCC(C)=CCC1` [Material 295], the “Log … (Comment Code K/L)” value under setting [1] is listed as “K (Log of liquid dish neat product liquid-air partition coefficient greater than or equal to −7)”.

As for `CC1C(=O)CC2(C)CCCC(C)(C)C23CC13` (stereo not drawn) [Material 804], the “Log … (Comment Code K/L)” value is recorded as “K (Log of liquid dish neat product liquid-air partition coefficient greater than or equal to −7)” and the “Comment Code: Log” value was “K (Log of liquid dish neat product liquid-air partition coefficient greater than or equal to −7)”.

In the case of `CCOC1CCC(C(C)(C)CC)CC1` (stereo not drawn) [Material 12], the “Comment Code: Log” value is recorded as “K (Log of liquid dish neat product liquid-air partition coefficient greater than or equal to −7)”.

As for `C/C(=C\C#N)CCc1ccccc1` [Material 894], the “Log … (Comment Code K/L)” value is given as “K (Log of liquid dish neat product liquid-air partition coefficient greater than or equal to −7)”.

As to `c1ccc(CCc2ccccc2)cc1` [Material 457], under setting [1], the “Log … (Comment Code K/L)” value is on record as “K (Log of liquid dish neat product liquid-air partition coefficient greater than or equal to −7)”.

Consider `CCCCCCCCCCC=O` [Material 1102], for which the “Log … (Comment Code K/L)” value is reported as “K (Log of liquid dish neat product liquid-air partition coefficient greater than or equal to −7)”.

As to `O=C1CCCCCCCCCC/C=C/CCO1` [Material 289], the “Log … (Comment Code K/L)” value under setting [1] was “K (Log of liquid dish neat product liquid-air partition coefficient greater than or equal to −7)”.

With `C=C1C2CCC(C)(C)C1CCC(OC)C2` (stereo not drawn) [Material 7], the “Comment Code: Log” value is listed as “K (Log of liquid dish neat product liquid-air partition coefficient greater than or equal to −7)”. Under setting [1], the “Log … (Comment Code K/L)” value was “K (Log of liquid dish neat product liquid-air partition coefficient greater than or equal to −7)”.

As for `CC12CCCC(C)(CC1)C2=NO` [Material 921], the “Comment Code: Log” value is on record as “K (Log of liquid dish neat product liquid-air partition coefficient greater than or equal to −7)”.

On to `Cc1ccc(C(C)(C)O)cc1` [Material 4], for which, under setting [1], the “Log … (Comment Code K/L)” value is “K (Log of liquid dish neat product liquid-air partition coefficient greater than or equal to −7)”.

For `CCNC(=O)C1CC(C)CCC1C(C)C` (stereo not drawn) [Material 57], the “Log … (Comment Code K/L)” value under setting [1] was “K (Log of liquid dish neat product liquid-air partition coefficient greater than or equal to −7)”.

Regarding `C=C1CCCC(C)(C)C1C(=O)C=CC` (stereo not drawn) [Material 331], the “Log … (Comment Code K/L)” value under setting [1] was “K (Log of liquid dish neat product liquid-air partition coefficient greater than or equal to −7)”.

Take `CCCCCCCCCCCC(=O)OC(C)C` [Material 197]: under setting [1], the “Log … (Comment Code K/L)” value is listed as “K (Log of liquid dish neat product liquid-air partition coefficient greater than or equal to −7)”.

Take `CC1C2CC(CC2C2CCC(O)CC2)C1(C)C` (stereo not drawn) [Material 230]: the “Comment Code: Log” value was “K (Log of liquid dish neat product liquid-air partition coefficient greater than or equal to −7)”. The “Log … (Comment Code K/L)” value under setting [1] is “K (Log of liquid dish neat product liquid-air partition coefficient greater than or equal to −7)”.

Take `C=CCCC(=O)C1CCCC(C)(C)C1` (stereo not drawn) [Material 334]: the “Log … (Comment Code K/L)” value under setting [1] is listed as “K (Log of liquid dish neat product liquid-air partition coefficient greater than or equal to −7)”.

With `CC/C=C\C/C=C/CCO` [Material 1072], the “Log … (Comment Code K/L)” value is “K (Log of liquid dish neat product liquid-air partition coefficient greater than or equal to −7)”.

On to `CC1C(C)(C)C2CCC3CC(C)(C)OC3C2C1(C)C` (stereo not drawn) [Material 680], for which the “Log … (Comment Code K/L)” value is given as “K (Log of liquid dish neat product liquid-air partition coefficient greater than or equal to −7)” and the “Comment Code: Log” value is listed as “K (Log of liquid dish neat product liquid-air partition coefficient greater than or equal to −7)”.

Regarding `C[C@@H]1CC[C@H]2C(C)(C)[C@H]3C[C@@]12CC1OC(C)(C)OC13C` (stereo partly drawn) [Material 674], the “Log … (Comment Code K/L)” value is given as “K (Log of liquid dish neat product liquid-air partition coefficient greater than or equal to −7)” and the “Comment Code: Log” value is listed as “K (Log of liquid dish neat product liquid-air partition coefficient greater than or equal to −7)”.

For the compound `C[C@@H]1CCC=C2CC[C@@H](C(C)(C)O)C[C@]21C` [Material 1107], the “Log … (Comment Code K/L)” value is reported as “K (Log of liquid dish neat product liquid-air partition coefficient greater than or equal to −7)” and the “Comment Code: Log” value is “K (Log of liquid dish neat product liquid-air partition coefficient greater than or equal to −7)”.

As to `COc1ccc(CC(C)=O)cc1` [Material 983], the “Comment Code: Log” value is on record as “K (Log of liquid dish neat product liquid-air partition coefficient greater than or equal to −7)”.

As for `CC12CCC(C(=O)C1=O)C2(C)C` (stereo not drawn) [Material 587], the “Log … (Comment Code K/L)” value is listed as “K (Log of liquid dish neat product liquid-air partition coefficient greater than or equal to −7)”.

For `OCCCc1ccccc1` [Material 254], the “Log … (Comment Code K/L)” value under setting [1] is on record as “K (Log of liquid dish neat product liquid-air partition coefficient greater than or equal to −7)”.

Turning to `C=C1CCCC(C)(C)C1C=CC(C)=O` (stereo not drawn) [Material 324], the “Log … (Comment Code K/L)” value under setting [1] is “K (Log of liquid dish neat product liquid-air partition coefficient greater than or equal to −7)”.

In the case of `CC(=O)OC(C)CCC=C(C)CCC=C(C)C` (racemic) [Material 881], the “Log … (Comment Code K/L)” value is on record as “K (Log of liquid dish neat product liquid-air partition coefficient greater than or equal to −7)”.

For `C=Cc1ccc(O)cc1` [Material 789], the “Comment Code: Log” value is reported as “K (Log of liquid dish neat product liquid-air partition coefficient greater than or equal to −7)”.

Regarding `CC1(O)CCC2=C(CCCC2(C)C)C1` (stereo not drawn) [Material 676], the “Log … (Comment Code K/L)” value is given as “K (Log of liquid dish neat product liquid-air partition coefficient greater than or equal to −7)”.

As to `CCOC(=O)C1C(CC)=CCCC1(C)C` (stereo not drawn) [Material 294], the “Log … (Comment Code K/L)” value under setting [1] is “K (Log of liquid dish neat product liquid-air partition coefficient greater than or equal to −7)”.

As for `CC(=O)O[C@]1(C)CC[C@@]23C[C@@H]1C(C)(C)[C@@H]2CC[C@H]3C` [Material 567], the “Log … (Comment Code K/L)” value is listed as “K (Log of liquid dish neat product liquid-air partition coefficient greater than or equal to −7)” and the “Comment Code: Log” value was “K (Log of liquid dish neat product liquid-air partition coefficient greater than or equal to −7)”.

As for `CCc1ccccc1CC(C)(C)C=O` [Material 356], the “Log … (Comment Code K/L)” value under setting [1] is “K (Log of liquid dish neat product liquid-air partition coefficient greater than or equal to −7)”.

Consider `CC1=CCCC(C)=CCC(C)(C)C=CC1` [Material 706], for which the “Log … (Comment Code K/L)” value is given as “K (Log of liquid dish neat product liquid-air partition coefficient greater than or equal to −7)”.

Regarding `Cc1ccc2c(c1)CC(C)(CO)C2` (stereo not drawn) [Material 161], the “Log … (Comment Code K/L)” value under setting [1] is listed as “K (Log of liquid dish neat product liquid-air partition coefficient greater than or equal to −7)”.

Regarding `CC(C)c1ccc2ncccc2c1` [Material 778], the “Log … (Comment Code K/L)” value is “K (Log of liquid dish neat product liquid-air partition coefficient greater than or equal to −7)”.
